Read-outs that look alike come from different tables or passages of the source.
Key:
Experiment in all cases: Biological Example 1 glasshouse assay for herbicidal activity
Type in all cases: in vivo
[1] = tested on: Alopecurus myosuroides (ALOMY); settings: 312 h, 13 days after application, read-out: percentage phytotoxicity ALOMY
In short: (§1)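 Weeds were sprayed pre-emergence (1 day after sowing) or post-emergence (8 days) with herbicide in acetone/water 50:50 plus 0.5% Tween 20. Plants grew in glasshouse at 24/16 °C, 14 h light, 65% humidity. Phytotoxicity was scored visually at 13 days (0–100%), usually one plant per species per rate.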

[2] = tested on: Abutilon theophrasti (ABUTH); settings: 312 h, 13 days after application, read-out: percentage phytotoxicity ABUTH
In short: as §1

[3] = tested on: Setaria faberi (SETFA); settings: 312 h, 13 days after application, read-out: percentage phytotoxicity SETFA
In short: as §1

[4] = tested on: Amaranthus retroflexus (AMARE); settings: 13 days after application; for pest or weed control at 8 g/ha / pest or weed control at 250 g/ha / pest or weed control at 30 g/ha: Amaranthus retroflexus, 312 h, read-out: percentage phytotoxicity AMARE
In short: as §1

[5] = tested on: Echinochloa crus-galli (ECHCG); settings: 13 days after application; for pest or weed control at 250 g/ha / percentage phytotoxicity ECHCG: 250 g/ha
In short: as §1

[6] = tested on: Zea mays (ZEAMX, corn, maize, e.g. volunteer corn); settings: 13 days after application; for pest or weed control at 8 g/ha / pest or weed control at 30 g/ha / pest or weed control at 250 g/ha: Zea mays, 312 h, read-out: percentage phytotoxicity ZEAMX; for pest or weed control at 250 g/ha / percentage phytotoxicity ZEAMX: 250 g/ha
In short: as §1

[7] = post-emergence, post-emergence, 250 g/ha
[8] = pre-emergence, pre-emergence, 250 g/ha
[9] = Echinochloa crus-galli, post-emergence, 312 h, post-emergence, read-out: percentage phytotoxicity ECHCG
[10] = Echinochloa crus-galli, pre-emergence, 312 h, pre-emergence, read-out: percentage phytotoxicity ECHCG

SMILES: CC#Cc1cc(F)c(C2C(=O)C3CCC(C3)C2=O)c(OC)c1 (stereo not shown) [Compound A1, 3-(2-Fluoro-6-methoxy-4-prop-1-ynyl-phenyl)-bicyclo[3.2.1]octane-2,4-dione]
- pest or weed control at 8 g/ha ([1]; post-emergence): 80%
- pest or weed control at 30 g/ha ([1]; post-emergence): 100%
- pest or weed control at 250 g/ha ([1]; post-emergence): 100%
- pest or weed control at 8 g/ha ([1]; pre-emergence): 70%
- pest or weed control at 30 g/ha ([1]; pre-emergence): 100%
- pest or weed control at 250 g/ha ([1]; pre-emergence): 100%
- pest or weed control at 8 g/ha ([2]; post-emergence, post-emergence): 0%
- pest or weed control at 8 g/ha ([2]; pre-emergence, pre-emergence): 0%
- pest or weed control at 30 g/ha ([2]; pre-emergence, pre-emergence): 0%
- pest or weed control at 250 g/ha ([3]; post-emergence, post-emergence): 100%
- pest or weed control at 8 g/ha ([3]; pre-emergence, pre-emergence): 50%
- pest or weed control at 250 g/ha ([3]; pre-emergence, pre-emergence): 100%
- pest or weed control at 8 g/ha ([4]; post-emergence, post-emergence): 0%
- pest or weed control at 250 g/ha [4, 7]: 30%
- pest or weed control at 8 g/ha ([4]; pre-emergence, pre-emergence): 0%
- pest or weed control at 30 g/ha ([4]; pre-emergence, pre-emergence): 0%
- pest or weed control at 250 g/ha [4, 8]: 20%
- percentage phytotoxicity AMARE ([4]; post-emergence, 250 g/ha): 30%
- pest or weed control at 30 g/ha [5, 9]: 100%
- pest or weed control at 250 g/ha [5, 9]: 100%
- pest or weed control at 250 g/ha [5, 10]: 100%
- percentage phytotoxicity ECHCG ([5]; post-emergence): 100%
- percentage phytotoxicity ECHCG ([5]; pre-emergence): 100%
- pest or weed control at 8 g/ha ([6]; post-emergence, post-emergence): 100%
- pest or weed control at 30 g/ha ([6]; post-emergence, post-emergence): 100%
- pest or weed control at 250 g/ha ([6]; post-emergence, post-emergence): 100%
- pest or weed control at 8 g/ha ([6]; pre-emergence, pre-emergence): 60%
- pest or weed control at 30 g/ha ([6]; pre-emergence, pre-emergence): 100%
- pest or weed control at 250 g/ha ([6]; pre-emergence, pre-emergence): 100%
- percentage phytotoxicity ZEAMX ([6]; post-emergence): 100%
- percentage phytotoxicity ZEAMX ([6]; pre-emergence): 100%

SMILES: CC#Cc1cc(F)c(C2=C(OC(=O)OC(C)C)C3CCC(C3)C2=O)c(OC)c1 (stereo not shown) [Compound P3]
- pest or weed control at 8 g/ha ([1]; post-emergence): 60%
- pest or weed control at 30 g/ha ([1]; post-emergence): 80%
- pest or weed control at 250 g/ha ([1]; post-emergence): 100%
- pest or weed control at 30 g/ha ([1]; pre-emergence): 70%
- pest or weed control at 250 g/ha ([1]; pre-emergence): 100%
- pest or weed control at 8 g/ha ([2]; post-emergence, post-emergence): 10%
- pest or weed control at 30 g/ha ([2]; post-emergence, post-emergence): 10%
- pest or weed control at 250 g/ha ([2]; post-emergence, post-emergence): 80%
- pest or weed control at 30 g/ha ([2]; pre-emergence, pre-emergence): 0%
- pest or weed control at 250 g/ha ([2]; pre-emergence, pre-emergence): 10%
- pest or weed control at 8 g/ha ([3]; post-emergence, post-emergence): 60%
- pest or weed control at 30 g/ha ([3]; post-emergence, post-emergence): 80%
- pest or weed control at 250 g/ha ([3]; post-emergence, post-emergence): 100%
- pest or weed control at 30 g/ha ([3]; pre-emergence, pre-emergence): 20%
- pest or weed control at 250 g/ha ([3]; pre-emergence, pre-emergence): 80%
- pest or weed control at 8 g/ha ([4]; post-emergence, post-emergence): 0%
- pest or weed control at 30 g/ha ([4]; post-emergence, post-emergence): 0%
- pest or weed control at 250 g/ha [4, 7]: 40%
- pest or weed control at 30 g/ha ([4]; pre-emergence, pre-emergence): 30%
- pest or weed control at 250 g/ha [4, 8]: 60%
- pest or weed control at 8 g/ha ([5]; Echinochloa crus-galli, post-emergence, 312 h, post-emergence, 8 g/ha, read-out: percentage phytotoxicity ECHCG): 80%
- pest or weed control at 30 g/ha [5, 9]: 100%
- pest or weed control at 250 g/ha [5, 9]: 100%
- pest or weed control at 30 g/ha [5, 10]: 80%
- pest or weed control at 250 g/ha [5, 10]: 100%
- pest or weed control at 8 g/ha ([6]; post-emergence, post-emergence): 90%
- pest or weed control at 30 g/ha ([6]; post-emergence, post-emergence): 100%
- pest or weed control at 250 g/ha ([6]; post-emergence, post-emergence): 100%
- pest or weed control at 30 g/ha ([6]; pre-emergence, pre-emergence): 80%
- pest or weed control at 250 g/ha ([6]; pre-emergence, pre-emergence): 100%

From US10590143B2, “Herbicidally active (alkynyl-phenyl)-substituted cyclic dione compounds and derivatives thereof” (Syngenta Limited, priority 2013, dated 2020)
